In one assay the target is T1, LPA3R (Homo sapiens, UniProt Q9UBY5).
T1 sequence (Q9UBY5 1-353): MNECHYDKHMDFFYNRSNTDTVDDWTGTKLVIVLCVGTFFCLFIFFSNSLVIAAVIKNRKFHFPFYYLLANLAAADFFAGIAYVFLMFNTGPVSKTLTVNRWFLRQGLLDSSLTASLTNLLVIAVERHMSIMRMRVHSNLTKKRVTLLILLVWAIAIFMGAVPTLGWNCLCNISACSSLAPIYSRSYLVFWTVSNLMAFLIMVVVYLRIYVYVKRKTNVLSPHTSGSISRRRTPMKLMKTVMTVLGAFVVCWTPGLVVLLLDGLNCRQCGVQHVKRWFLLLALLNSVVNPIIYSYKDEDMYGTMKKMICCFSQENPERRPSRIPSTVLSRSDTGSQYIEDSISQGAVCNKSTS
Briefly: LPA3R antagonist activity (Table 1, calcium flux FLIPR). The assay is classed as cell-based. The method, then: (§1) Calcium Flux Assay Using Fluorometric Imaging Plate Reader (FLIPR)
(§2) After incubation, both the cell and “assay” plates were brought to the FLIPR and 20 μL of the diluted compounds were transferred to the cell plates by the FLIPR. Compound addition was monitored by FLIPR to detect any agonist activity of the compounds. Plates were then incubated for 30 minutes at room temperature protected from light. After the incubation, plates were returned to the FLIPR and 20 μL of 4.5× concentrated agonist was added to the cell plates. During the assay, fluorescence readings were taken simultaneously from all 384 wells of the cell plate every 1.5 seconds. Five readings were taken to establish a stable baseline, then 20 μL of sample was rapidly (30 μL/sec) and simultaneously added to each well of the cell plate. The fluorescence was continuously monitored before, during and after sample addition for a total elapsed time of 100 seconds. Responses (increase in peak fluorescence) in each well following agonist addition was determined. The initial fluorescence reading from each well, prior to ligand stimulation, was used as zero baseline value for the data from that well. The responses were expressed as % inhibition of the buffer control.
A general note: A change in cytosolic calcium serves as a functional read-out for many receptors and channels.

Assay [1] concerns the target human recombinant LPA1 Lysophospholipid receptor (Homo sapiens, UniProt Q92633). Briefly: Calcium flux assay using FLIPR, LPA1R antagonist activity. The assay is classed as cell-based. The following applies: for IC50: ChemiScreen calcium-optimized stable cell line, FLIPR calcium flux, antagonist mode. The method, then: as §1
Cell Culture Conditions: The ChemiScreen Calcium-optimized stable cell line containing the human recombinant LPA1 Lysophospholipid receptor was purchased from Chemicon International, Inc./Millipore. The cells were cultured in DMEM-high glucose supplemented with 10% fetal bovine serum, 2 mM glutamine, 100 U/mL penicillin/100 μg/mL streptomycin, 1× non-essential amino acids, 10 mM HEPES and 0.25 mg/mL Geneticin. Cells were harvested with trypsin-EDTA and counted using ViaCount reagent. The cell suspension volume was adjusted to 2.0×10^5 cells/mL with complete growth media. Aliquots of 50 μL were dispensed into 384 well black/clear tissue culture treated plates (BD) and the microplates were placed in a 37° C. incubator overnight. The following day plates were used in the assay.
Dye Loading and Assay: Loading Buffer (FLIPR Calcium-4, Molecular Devices) was prepared by dissolving the contents of one bottle into 100 mL Hank's Balanced Salt Solution containing 20 mM HEPES and 2.5 mM probenecid. Plates were loaded onto Biotek plate washer and growth media was removed and replaced with 20 µL of Hank's Balanced Salt Solution containing 20 mM HEPES and 2.5 mM probenecid, followed by 25 μL of Loading Buffer. The plates were then incubated for 30 minutes at 37° C.
During the incubation, test compounds were prepared by adding 90 μL of HBSS/20 mM HEPES/0.1% BSA buffer to 2 μL of serially diluted compounds. To prepare serial dilutions, 10 mM stocks of compounds were prepared in 100% DMSO. The compound dilution plate was set up as follows: well #1 received 29 μL of stock compound and 31 μL DMSO; wells 2-10 received 40 μL of DMSO; mixed and transferred 20 μL of solution from well #1 into well #2; continued with 1:3 serial dilutions out 10 steps; transferred 2 μL of diluted compound into duplicate wells of 384 well “assay plate” and then added the 90 μL of buffer.
as §2

Each structure is given as a SMILES string.

Broadly, the IC50 is the concentration that inhibits the measured activity by half. A word on the inhibition: it is the change of the read-out against control, counted positive when it falls.

human recombinant LPA1 Lysophospholipid receptor, sequence (Q92633 whole entry): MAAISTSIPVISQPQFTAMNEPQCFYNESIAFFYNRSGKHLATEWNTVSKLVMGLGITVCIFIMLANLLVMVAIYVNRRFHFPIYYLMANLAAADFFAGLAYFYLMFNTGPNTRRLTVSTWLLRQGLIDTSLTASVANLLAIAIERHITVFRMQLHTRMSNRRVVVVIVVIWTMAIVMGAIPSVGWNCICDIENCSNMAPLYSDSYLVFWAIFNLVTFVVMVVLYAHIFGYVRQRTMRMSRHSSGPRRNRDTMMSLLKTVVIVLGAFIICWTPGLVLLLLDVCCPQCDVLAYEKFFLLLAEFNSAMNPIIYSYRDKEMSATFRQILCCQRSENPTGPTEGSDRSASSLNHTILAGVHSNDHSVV

On to `CCOC(=O)C1(c2ccc(-c3ccc(-c4cnn(C)c4NC(=O)O[C@H](C)c4ccccc4)cc3)cc2)CC1` [Example 4, 1-{4′-[1-Methyl-5-((R)-1-phenyl-ethoxycarbonylamino)-1H-pyrazol-4-yl]-biphenyl-4-yl}-cyclopropanecarboxylic acid ethyl ester], for which the IC50 on LPA3R was more than 30 µM. Further, in assay [1], the inhibition at 30 µM was determined as 65.9% and the IC50 amounted to 1590 nM.

On to `C[C@@H](OC(=O)Nc1c(-c2ccccc2)cnn1C)c1ccccc1` [Example 1, 2-Methyl-4-phenyl-2H-pyrazol-3-yl-carbamic acid (R)-1-phenyl-ethyl ester], for which the IC50 at LPA3R is more than 30 µM. Further, in assay [1], the inhibition at 30 µM was 64.8% and the IC50 was found to be 17500 nM.

On to `C[C@@H](OC(=O)Nc1c(-c2ccc(-c3ccc(C4(C(=O)O)CC4)cc3)cc2)cnn1C)c1ccccc1F` [Example 16, (R)-1-{4′-[5-((1-(2-Fluorophenyl)ethoxy)carbonylamino)-1-methyl-1H-pyrazol-4-yl]-biphenyl-4-yl}-cyclopropanecarboxylic acid], for which the values for the IC50 (on LPA3R; in assay [1]) were 5.8 µM and 24 nM, respectively.

On to `CC(OC(=O)Nc1c(-c2ccc(F)cc2)cnn1C)c1ccccc1Cl` (stereo not drawn) [Example 11, [4-(4-Fluoro-phenyl)-2-methyl-2H-pyrazol-3-yl]-carbamic acid 1-(2-chloro-phenyl)-ethyl ester], for which the IC50 in assay [1] was 3930 nM.

As to `CC(OC(=O)Nc1c(-c2ccccc2F)cnn1C)c1cccc(C(F)(F)F)c1` (racemic) [Example 12, [4-(2-Fluoro-phenyl)-2-methyl-2H-pyrazol-3-yl]-carbamic acid 1-(3-trifluoromethyl-phenyl)-ethyl ester], the IC50 at LPA3R is more than 30 µM; in assay [1] it was 24600 nM. Also, the inhibition at 30 µM in assay [1] turned out to be 50.5%.

Take `CC(OC(=O)Nc1c(-c2ccc(-c3ccc(C4(C(=O)O)CC4)cc3)cc2)cnn1C)c1ccccc1Cl` (stereo not drawn) [Example 6, 1-(4′-{5-[1-(2-Chloro-phenyl)-ethoxycarbonylamino]-1-methyl-1H-pyrazol-4-yl}-biphenyl-4-yl)-cyclopropanecarboxylic acid]: the IC50 was found to be 2.47 µM at LPA3R and 112 nM in assay [1].

On to `C[C@@H](OC(=O)Nc1c(-c2ccc(-c3ccc(C4(C(=O)O)CC4)cc3)cc2)cnn1C)c1cccc(C(F)(F)F)c1` [Example 17, (R)-1-{4′-[1-Methyl-5-((1-(3-(trifluoromethyl)phenyl)ethoxy)carbonylamino)-1H-pyrazol-4-yl]-biphenyl-4-yl}-cyclopropanecarboxylic acid], for which the IC50 on LPA3R was 0.478 µM; in assay [1], 42 nM.

As to `C[C@H](OC(=O)Nc1c(-c2ccccc2F)cnn1C)c1ccccc1Cl` [Example 22, [4-(2-Fluoro-phenyl)-2-methyl-2H-pyrazol-3-yl]-carbamic acid (S)-1-(2-chloro-phenyl)-ethyl ester], the values for the IC50 (at LPA3R; in assay [1]) were more than 30 µM and more than 30000 nM, respectively.

For `CC[C@@H](C)OC(=O)Nc1c(-c2ccc(-c3ccc(C4(C(=O)O)CC4)cc3)cc2)cnn1C` [Example 14, (R)-1-{4′-[5-(sec-Butoxycarbonylamino)-1-methyl-1H-pyrazol-4-yl]-biphenyl-4-yl}-cyclopropanecarboxylic acid], the IC50 on LPA3R is more than 30 µM; in assay [1] it was 38 nM.

For `C[C@@H](CC(=O)Nc1c(-c2ccc(-c3ccc(C4(C(=O)O)CC4)cc3)cc2)cnn1C)c1ccccc1` [Example 25, 1-{4′-[1-Methyl-5-((S)-3-phenyl-butyrylamino)-1H-pyrazol-4-yl]-biphenyl-4-yl}-cyclopropanecarboxylic acid], the IC50 at LPA3R is more than 30 µM; in assay [1], 880 nM. Moreover, the inhibition at 30 µM in assay [1] was determined as 85.5%.

`Cn1ncc(-c2ccc(-c3ccc(C4(C(=O)O)CC4)cc3)cc2)c1NC(=O)OC1CCC1` [Example 19, 1-{4′-[5-(cyclobutoxycarbonylamino)-1-methyl-1H-pyrazol-4-yl]-biphenyl-4-yl}-cyclopropanecarboxylic acid]: the IC50 is more than 30 µM at LPA3R and 176 nM in assay [1].

`C[C@@H](OC(=O)Nc1c(-c2ccc(C3(C(=O)O)CC3)cc2)cnn1C)c1ccccc1` [Example 9, 1-{4-[1-Methyl-5-((R)-1-phenyl-ethoxycarbonylamino)-1H-pyrazol-4-yl]-phenyl}-cyclopropanecarboxylic acid]: the IC50 at LPA3R was more than 30 µM; in assay [1] it was more than 30000 nM.

For the compound `COc1ccc(-c2cnn(C)c2NC(=O)O[C@H](C)c2ccccc2)cc1` [Example 8, [4-(4-Methoxy-phenyl)-2-methyl-2H-pyrazol-3-yl]-carbamic acid (R)-1-phenyl-ethyl ester], the IC50 was more than 30 µM on LPA3R and more than 30000 nM in assay [1].

`C[C@@H](OC(=O)Nc1c(-c2ccccc2F)cnn1C)c1cccc(C(F)(F)F)c1` [Example 23, [4-(2-Fluoro-phenyl)-2-methyl-2H-pyrazol-3-yl]-carbamic acid (R)-1-(3-trifluoromethyl-phenyl)-ethyl ester]: the IC50 at LPA3R was more than 30 µM; in assay [1], more than 30000 nM.

Take `C[C@@H](OC(=O)Nc1c(-c2ccc(CC(=O)O)cc2)cnn1C)c1ccccc1` [Example 10, {4-[1-Methyl-5-((R)-1-phenyl-ethoxycarbonylamino)-1H-pyrazol-4-yl]-phenyl}-acetic acid]: the IC50 is more than 30 µM at LPA3R and more than 30000 nM in assay [1].

As for `CC(OC(=O)Nc1c(-c2ccccc2F)cnn1C)c1ccccc1Cl` (racemic) [Example 13, [4-(2-Fluoro-phenyl)-2-methyl-2H-pyrazol-3-yl]-carbamic acid 1-(2-chloro-phenyl)-ethyl ester], the half-maximal inhibitory concentration (IC50) at LPA3R was more than 30 µM; in assay [1] it was 1400 nM.

Take `C[C@@H](OC(=O)Nc1c(-c2ccc(-c3ccc(C4(C(=O)O)CC4)cc3)cc2)cnn1C)c1ccccc1` [Example 5, 1-{4′-[1-Methyl-5-((R)-1-phenyl-ethoxycarbonylamino)-1H-pyrazol-4-yl]-biphenyl-4-yl}-cyclopropanecarboxylic acid]: the IC50 at LPA3R is 8.35 µM; in assay [1] it was 20 nM.

In the case of `Cn1ncc(-c2ccc(-c3ccc(C4(C(=O)O)CC4)cc3)cc2)c1NC(=O)OC1COC1` [Example 20, 1-{4′-[1-Methyl-5-((oxetan-3-yloxy)carbonylamino)-1H-pyrazol-4-yl]-biphenyl-4-yl}-cyclopropanecarboxylic acid], the IC50 at LPA3R was more than 30 µM; in assay [1] it was more than 30000 nM.

Turning to `Cn1ncc(-c2ccc(-c3ccc(C4(C(=O)O)CC4)cc3)cc2)c1NC(=O)NCc1ccccc1` [Example 24, 1-{4′-[5-(3-Benzyl-ureido)-1-methyl-1H-pyrazol-4-yl]-biphenyl-4-yl}-cyclopropanecarboxylic acid], the IC50 was more than 30 µM at LPA3R and 580 nM in assay [1]. The inhibition at 10 µM in assay [1] (@ 10 μM) was determined as 82.8%.

As to `C[C@@H](OC(=O)Nc1c(-c2ccc(-c3ccccc3)cc2)cnn1C)c1ccccc1` [Example 7, (4-Biphenyl-4-yl-2-methyl-2H-pyrazol-3-yl)-carbamic acid (R)-1-phenyl-ethyl ester], the figures for the IC50 (at LPA3R; in assay [1]) were more than 30 µM and more than 30000 nM, respectively.

Consider `C[C@@H](OC(=O)Nc1c(-c2ccccc2F)cnn1C)c1ccccc1Cl` [Example 21, [4-(2-Fluoro-phenyl)-2-methyl-2H-pyrazol-3-yl]-carbamic acid (R)-1-(2-chloro-phenyl)-ethyl ester], for which the IC50 at LPA3R is more than 30 µM; in assay [1] it was 644 nM. For the same compound, in assay [1], the inhibition at 30 µM was 97.2%.

On to `CC(OC(=O)Nc1c(-c2ccccc2)cnn1C)c1ccccc1Cl` (stereo not drawn) [Example 3, (2-Methyl-4-phenyl-2H-pyrazol-3-yl)-carbamic acid 1-(2-chloro-phenyl)-ethyl ester], for which the IC50 in assay [1] came out at 3590 nM.

Source of the values: patent US20150259295A1, “SUBSTITUTED PYRAZOLE COMPOUNDS AS LPAR ANTAGONISTS” (Hoffmann-La Roche Inc., priority 2012, published 2015).
